Experimental data taken from patent publication US20180177219A1, “FAST-DISSOLVING CO-CRYSTALLINE LACTOSE” (NESTEC S.A., priority 2015, published 2018).

Key:
Format in all cases: physicochemical
[1] = Dissolution kinetics by online refractometry (normalized refractive index), stirred; details: particle size 60-90 μm; for amount of solid dissolved in water within 20 seconds: 60 ml, stirring 500 rpm, ambient temperature (20° C.)
Experimental: Dissolution kinetics were measured by online-refractometry in water over a time period of 0 to 100 seconds while stirring at 500 rpm at ambient temperature (20° C.).
The dissolution kinetics of 2 g of lactose.CaCl2.7 H2O co-crystals in water (♦) in comparison to 1.24 g of pure lactose monohydrate in water (▪), 1.24 g of lactose monohydrate in 0.52 g calcium chloride solution (▴) and a physical mixture of 1.24 g of lactose monohydrate and 0.52 g of calcium chloride dihydrate in water (X) were measured by refractometry at room temperature over a time period of 0 to 100 seconds while stirring the solution.

[2] = Dissolution of an individual crystal filmed under a microscope, no agitation; details: room temperature; for time to complete dissolution of an individual crystal: crystals comparable in size and morphology
Experimental: The dissolution of the individual crystals was filmed under a microscope using a high-resolution camera and film-stills of the progressing dissolution were analyzed (area of remaining solid material) until complete dissolution was achieved.
Dissolution kinetics were measured over a time period of 0 to 36 seconds.
The dissolution kinetics of an individual α-lactose.CaCl2.7 H2O co-crystal (▪) in comparison to α-lactose monohydrate (▴) in water were determined. Dissolution kinetics were measured over a time period of 0 to 36 seconds at room temperature without stirring.

[3] = Dynamic vapor sorption (moisture tolerance); details: 25° C., 120 hours, relative humidity augmented stepwise
Experimental: The physical mixture contains the same molar quantities of lactose and calcium chloride as compared to the co-crystalline material. The straight (horizontal) line corresponds to an uptake of five equivalents of water. dm: mass gain in percent; RH: relative humidity in percent.
Dynamic vapor sorption experiments were performed for lactose.calcium salt co-crystals in comparison to a physical mixture of lactose monohydrate and calcium chloride dihydrate. The physical mixture contains the same molar quantities of lactose and calcium chloride as compared to the co-crystalline material.
Measurements were conducted over 120 hours at a temperature of 25° C. and relative humidity was augmented stepwise until the samples fully liquefied.

SMILES | amount of solid dissolved in calcium chloride solution within 20 seconds ([1]; 1.24 g in 0.52 g calcium chloride solution, stirring, room temperature) | amount of solid dissolved in water within 20 seconds [1] | time for complete dissolution relative to lactose.CaCl2.7 H2O co-crystal (times as long) ([2]; individual crystal, liquid phase not agitated) | time to complete dissolution of an individual crystal ([2]; water, without stirring) | moisture absorption behaviour [3] | moisture tolerance compared to physical mixture of lactose monohydrate and calcium chloride dihydrate [3] | dissolution speed relative to lactose monohydrate (times faster) ([2]; individual crystal, water, without stirring)
O.OC[C@H]1O[C@@H](O[C@H]2[C@H](O)[C@@H](O)C(O)O[C@@H]2CO)[C@H](O)[C@@H](O)[C@H]1O (stereo partly drawn) [lactose monohydrate, reference compound] | about 30% | about 20% | roughly seven | about 36 seconds |  |  | 
O.O.O.O.O.O.O.OC[C@H]1O[C@@H](O[C@H]2[C@H](O)[C@@H](O)C(O)O[C@@H]2CO)[C@H](O)[C@@H](O)[C@H]1O.[Ca+2].[Cl-].[Cl-] (stereo partly drawn) [lactose.CaCl2.7 H2O co-crystals, lactose.calcium chloride.7 H2O] |  | about 85% |  | about 2.5 seconds | gradually continued to absorb moisture in parallel with augmentation of relative humidity | improved moisture tolerance | 14 to 15 times
